{"source": "patent US20210253454A1", "about": "“MICELLAR DELIVERY METHOD” (EVONIK OPERATIONS GMBH, priority 2018, published 2021)", "key": {"[1]": {"system": "Pseudomonas aeruginosa (ATCC 15442) biofilm", "assay": "Biocidal activity on biofilm, CDC Biofilm reactor, glass coupons, 1-4 hrs", "assay_type": "cell-based", "conditions": "initial 100 ppm", "text": "We evaluated the biocidal activity of PAA-surfactant solutions on microbial biofilms using a CDC Biofilm reactor from BioSurface Technologies. This reactor supplies a continuous flow of nutrient broth through a container that exposes bacteria growing on glass coupons to shear forces. The setup mimics at least two features typical for oilfield operations: a renewable nutrient source and shear forces applied to the biofilms. All reactor parts were cleaned with a solution of 1% Neutrad lab soap and rinsed well with deionized water, and allowed to dry prior to autoclaving on a 20 minutes gravity cycle to sterilize.\nPseudomonas aeruginosa (ATCC 15442) biofilm was grown for 48 hours in the biofilm reactor on glass coupons at 25° C. A solution containing 300 mg/L of sterile trypticase soy broth (TSB) was used as nutrient feed. 1 mL of the working inoculum of P. aeruginosa was added through the inoculation port. The first step was a 24 hours batch phase followed by 24 hours in continuous flow mode, when 100 mg/L TSB solution was pumped into the stirring reactor for about 24 hours at room temperature to create a matured biofilm on the coupon surfaces.\n(§1) Upon completion of the biofilm growth phase, the coupons were removed and rinsed by immersion into 30 mL dilution buffer. Coupons were placed into sterile centrifuge test tubes and 4 mL biocide or buffer were added. Then the tubes were vortexed on low speed to ensure complete coverage of the coupon. At the appropriate time, the biocide was poured off, and reserved for chemical analysis of PAA and hydrogen peroxide. Then, a 10 mL aliquot of chemical neutralizing Letheen broth with 0.5% sodium thiosulfate was added to each tube. One treated coupon from each treatment group was removed at final time point for visual analysis.\nThe compositions were diluted with deionized water before use, such that the initial concentration of PAA-surfactant active ingredient was 100 ppm.\nIn order to recover remaining viable bacteria from the coupons, the test tubes with coupons were vortexed for 30 s on highest setting, and then sonicated for 30 s at 45 kHz. This treatment was then repeated twice. After that, the broth was diluted serially into Butterfield's buffer, and the dilutions plated on 3M™ Petrifilm™ Aerobic Count Plates. The plates were incubated for 48 hours at 35° C., and then counted. Calculations were performed to obtain the Log10 CFU/mL of the solutions at each time point."}, "[2]": {"assay": "Oxidizer (PAA, hydrogen peroxide) concentration in treatment solution during biofilm test", "assay_type": "physicochemical", "conditions": "initial 100 ppm", "method": "as §1\nPAA and Hydrogen peroxide concentrations were monitored during the test by using Chemetrics test kits K-7913F and K-5543.\nWe further evaluated the biocidal activity of PAA-surfactant solutions on microbial biofilms using a CDC Biofilm reactor from BioSurface Technologies as described in Example 9. The three biocide solutions were also as described in Example 9, but the contact time was increased to about 72 hours under agitation. Additionally, for this test, the biocide aliquot was increased from the standard method amount of 4 mL up to 30 mL. These adjustments were made to more accurately simulate expected field conditions. The recovery was performed as described in the Example 8. […] Chemical analysis indicated only a slight reduction in concentrations of both PAA and hydrogen peroxide over the 72-hour time period."}}}
{"molecule": "CC(=O)OO", "note": "[PAA, peracetic acid]", "values": [{"measurement": "Log10 reduction", "setting": "[1]; 1 hrs", "value": 1.4, "unit": "Log10"}, {"measurement": "Log10 remaining", "setting": "[1]; 1 hrs", "value": 7.8, "unit": "Log10 CFU/mL"}, {"measurement": "Log10 reduction", "setting": "[1]; 2 hrs", "value": 2.2, "unit": "Log10"}, {"measurement": "Log10 remaining", "setting": "[1]; 2 hrs", "value": 7.0, "unit": "Log10 CFU/mL"}, {"measurement": "Log10 reduction", "setting": "[1]; 4 hrs", "value": 3.1, "unit": "Log10"}, {"measurement": "Log10 remaining", "setting": "[1]; 4 hrs", "value": 6.1, "unit": "Log10 CFU/mL"}, {"measurement": "H2O2, ppm", "setting": "[2]; 1 hrs", "value": 35, "unit": "ppm"}, {"measurement": "PAA, ppm", "setting": "[2]; 1 hrs", "value": 63, "unit": "ppm"}, {"measurement": "H2O2, ppm", "setting": "[2]; 2 hrs", "value": 27, "unit": "ppm"}, {"measurement": "PAA, ppm", "setting": "[2]; 2 hrs", "value": 54, "unit": "ppm"}, {"measurement": "H2O2, ppm", "setting": "[2]; 4 hrs", "value": 10, "unit": "ppm"}, {"measurement": "PAA, ppm", "setting": "[2]; 4 hrs", "value": 30, "unit": "ppm"}]}
